# According to patent publication US10870647B2, “Imidazopyridine derivative, method for preparing same, and pharmaceutical composition containing same as active ingredient for preventing or treating cancer” (DAEGU-GYEONGBUK MEDICAL INNOVATION FOUNDATION, priority 2016, dated 2020):
# Assays:
# [1] = molecular target: T1, CSF1R (Homo sapiens, UniProt P07333); experiment: Enzyme inhibitory activity (Kd), Reaction Biology Co.; assay type: binding
# T1 construct: purchased Reaction Biology Co
# [2] = molecular target: T2, LOK (Homo sapiens, UniProt O94804); experiment: as above; assay type: binding
# T2 construct: purchased Reaction Biology Co
# T2 sequence (O94804 whole entry): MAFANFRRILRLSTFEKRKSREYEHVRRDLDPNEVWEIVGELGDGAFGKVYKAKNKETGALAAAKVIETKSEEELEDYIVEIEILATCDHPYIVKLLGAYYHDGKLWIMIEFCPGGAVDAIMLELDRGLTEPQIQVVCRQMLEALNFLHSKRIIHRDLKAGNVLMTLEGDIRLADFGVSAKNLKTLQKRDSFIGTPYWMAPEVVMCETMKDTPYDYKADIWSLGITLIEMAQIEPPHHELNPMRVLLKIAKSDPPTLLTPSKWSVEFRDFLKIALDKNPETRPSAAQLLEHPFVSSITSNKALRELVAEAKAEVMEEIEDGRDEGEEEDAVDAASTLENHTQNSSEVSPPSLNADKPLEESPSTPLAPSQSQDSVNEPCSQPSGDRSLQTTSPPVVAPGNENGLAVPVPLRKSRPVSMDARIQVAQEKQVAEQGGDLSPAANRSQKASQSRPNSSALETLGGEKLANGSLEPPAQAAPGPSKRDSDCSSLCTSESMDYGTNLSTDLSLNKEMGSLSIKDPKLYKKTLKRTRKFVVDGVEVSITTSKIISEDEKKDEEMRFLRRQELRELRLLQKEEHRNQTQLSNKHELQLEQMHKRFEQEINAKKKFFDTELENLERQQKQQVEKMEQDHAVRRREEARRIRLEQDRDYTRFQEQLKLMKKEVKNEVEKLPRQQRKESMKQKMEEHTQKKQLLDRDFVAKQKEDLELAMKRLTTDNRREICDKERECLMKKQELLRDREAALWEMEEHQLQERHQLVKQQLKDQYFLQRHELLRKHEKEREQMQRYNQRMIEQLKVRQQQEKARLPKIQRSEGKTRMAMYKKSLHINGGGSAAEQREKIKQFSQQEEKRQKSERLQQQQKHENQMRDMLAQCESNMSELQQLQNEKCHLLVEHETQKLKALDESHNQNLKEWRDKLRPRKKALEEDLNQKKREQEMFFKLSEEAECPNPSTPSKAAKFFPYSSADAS
# [3] = molecular target: T3, CDK11 (Homo sapiens, UniProt Q9BWU1); experiment: as above; assay type: binding
# T3 construct: purchased Reaction Biology Co
# [4] = molecular target: T4, JAK2(JH1domain-catalytic) (Homo sapiens, UniProt O60674); experiment: as above; assay type: binding
# T4 construct: JAK2 (JH1domain-catalytic); purchased Reaction Biology Co
# T4 sequence (O60674 849-1124 limits assumed): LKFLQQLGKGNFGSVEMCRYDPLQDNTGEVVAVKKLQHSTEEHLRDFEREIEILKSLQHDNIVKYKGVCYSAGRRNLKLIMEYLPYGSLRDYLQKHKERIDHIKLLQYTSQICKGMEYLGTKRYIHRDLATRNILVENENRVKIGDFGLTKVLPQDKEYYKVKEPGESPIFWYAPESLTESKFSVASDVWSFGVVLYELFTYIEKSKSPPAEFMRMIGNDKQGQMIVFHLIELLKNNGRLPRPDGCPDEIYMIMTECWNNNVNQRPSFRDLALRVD
# [5] = test system: K562; experiment: Cancer cell proliferation inhibition, CCK-8, 72 hours; assay type: cell-based; details: Homo sapiens, K562, 72 h
# Procedure, shortened: (§1)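 A375 cells (2×10^3/well) attached overnight, then received 9 three-fold dilutions (0.0015-10 μM). K562 and Ba/F3-T315I (1×10^4/well) were given 9-point series (3-fold and 5-fold respectively), final 0-10 μM. After 72 h at 37°C, CCK-8 was added for 2 h; blank-subtracted OD450 gave IC50.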
# [6] = test system: A375; experiment: as above; assay type: cell-based; details: Homo sapiens, A-375, 72 h
# Procedure, shortened: as §1
# [7] = molecular target: T5, T315I (Ba/F3) (Homo sapiens, UniProt P00519, T315I, cells depend on it); experiment: as above; assay type: cell-based; details: read-out: T315I (Ba/F3) IC50
# T5 construct: fused on or other part: P11274 (Breakpoint cluster region protein)
# Procedure, shortened: as §1
# [8] = molecular target: T6, YES (Homo sapiens, UniProt P07947); experiment: Enzyme inhibitory activity (Kd), Reaction Biology Co.; assay type: binding
# T6 construct: purchased Reaction Biology Co
# T6 sequence (P07947 whole entry): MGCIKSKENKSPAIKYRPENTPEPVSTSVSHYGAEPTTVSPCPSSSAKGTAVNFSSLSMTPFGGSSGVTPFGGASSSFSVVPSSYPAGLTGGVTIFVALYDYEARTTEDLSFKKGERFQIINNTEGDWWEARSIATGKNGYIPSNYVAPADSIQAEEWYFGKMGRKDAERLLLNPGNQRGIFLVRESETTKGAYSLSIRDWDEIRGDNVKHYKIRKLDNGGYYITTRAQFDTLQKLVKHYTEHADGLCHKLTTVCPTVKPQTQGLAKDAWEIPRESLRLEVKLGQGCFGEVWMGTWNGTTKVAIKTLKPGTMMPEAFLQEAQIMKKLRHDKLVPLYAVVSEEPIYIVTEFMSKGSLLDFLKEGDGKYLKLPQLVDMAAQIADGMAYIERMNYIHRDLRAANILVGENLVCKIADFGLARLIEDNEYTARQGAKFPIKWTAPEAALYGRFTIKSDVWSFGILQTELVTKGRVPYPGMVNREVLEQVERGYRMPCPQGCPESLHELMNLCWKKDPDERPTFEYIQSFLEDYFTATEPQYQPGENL
# [9] = molecular target: T7, LCK (Homo sapiens, UniProt P06239); experiment: as above; assay type: binding
# T7 construct: purchased Reaction Biology Co
# T7 sequence (P06239 whole entry): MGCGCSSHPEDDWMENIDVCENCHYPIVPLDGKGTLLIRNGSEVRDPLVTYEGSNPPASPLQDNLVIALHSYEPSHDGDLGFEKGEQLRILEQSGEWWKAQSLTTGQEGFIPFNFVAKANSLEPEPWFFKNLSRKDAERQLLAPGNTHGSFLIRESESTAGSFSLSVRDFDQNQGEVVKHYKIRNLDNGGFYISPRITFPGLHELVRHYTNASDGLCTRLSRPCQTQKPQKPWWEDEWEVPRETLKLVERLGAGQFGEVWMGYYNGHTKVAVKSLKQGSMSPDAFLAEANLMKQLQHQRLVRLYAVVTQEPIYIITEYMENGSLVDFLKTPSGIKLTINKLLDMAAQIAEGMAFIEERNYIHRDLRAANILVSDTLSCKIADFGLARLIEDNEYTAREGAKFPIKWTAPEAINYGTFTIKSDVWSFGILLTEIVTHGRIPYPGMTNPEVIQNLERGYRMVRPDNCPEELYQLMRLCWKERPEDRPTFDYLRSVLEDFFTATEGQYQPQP
# [10] = molecular target: T8, HCK (Homo sapiens, UniProt P08631); experiment: as above; assay type: binding
# T8 construct: purchased Reaction Biology Co
# T8 sequence (P08631 whole entry): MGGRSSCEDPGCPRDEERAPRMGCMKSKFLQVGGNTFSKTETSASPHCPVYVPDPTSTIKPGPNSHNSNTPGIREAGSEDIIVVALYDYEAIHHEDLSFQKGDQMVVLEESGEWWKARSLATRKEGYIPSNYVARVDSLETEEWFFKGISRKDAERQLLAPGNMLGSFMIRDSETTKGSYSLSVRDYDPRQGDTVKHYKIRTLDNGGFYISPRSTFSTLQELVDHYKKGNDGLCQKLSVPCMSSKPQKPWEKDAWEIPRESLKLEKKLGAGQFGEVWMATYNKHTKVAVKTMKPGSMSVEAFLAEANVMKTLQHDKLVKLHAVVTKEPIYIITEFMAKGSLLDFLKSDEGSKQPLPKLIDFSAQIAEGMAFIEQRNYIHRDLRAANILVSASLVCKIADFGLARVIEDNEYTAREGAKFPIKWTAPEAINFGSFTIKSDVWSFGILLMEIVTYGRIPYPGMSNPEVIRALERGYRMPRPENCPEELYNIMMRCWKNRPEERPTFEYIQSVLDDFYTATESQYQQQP
# [11] = molecular target: T9, FGR (Homo sapiens, UniProt P09769); experiment: as above; assay type: binding
# T9 construct: purchased Reaction Biology Co
# [12] = molecular target: T10, FYN (Homo sapiens, UniProt P06241); experiment: as above; assay type: binding
# T10 construct: purchased Reaction Biology Co
# T10 sequence (P06241 whole entry): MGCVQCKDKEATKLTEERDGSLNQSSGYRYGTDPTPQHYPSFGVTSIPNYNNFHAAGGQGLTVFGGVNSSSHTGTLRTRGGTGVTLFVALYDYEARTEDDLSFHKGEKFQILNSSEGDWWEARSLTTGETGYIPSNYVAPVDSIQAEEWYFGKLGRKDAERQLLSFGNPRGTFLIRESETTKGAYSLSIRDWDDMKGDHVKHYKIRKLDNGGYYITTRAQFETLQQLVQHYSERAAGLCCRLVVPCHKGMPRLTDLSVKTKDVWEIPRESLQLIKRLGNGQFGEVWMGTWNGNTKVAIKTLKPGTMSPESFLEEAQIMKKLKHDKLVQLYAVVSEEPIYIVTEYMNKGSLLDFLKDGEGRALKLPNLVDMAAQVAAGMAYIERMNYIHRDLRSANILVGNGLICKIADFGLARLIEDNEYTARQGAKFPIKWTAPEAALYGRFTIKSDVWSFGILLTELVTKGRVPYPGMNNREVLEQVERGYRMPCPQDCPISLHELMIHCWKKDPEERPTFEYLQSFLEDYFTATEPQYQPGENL
# [13] = molecular target: T11, BLK (Homo sapiens, UniProt P51451); experiment: as above; assay type: binding
# T11 construct: purchased Reaction Biology Co
# [14] = molecular target: T12, SRC (Homo sapiens, UniProt P12931); experiment: as above; assay type: binding
# T12 construct: purchased Reaction Biology Co
# T12 sequence (P12931 whole entry): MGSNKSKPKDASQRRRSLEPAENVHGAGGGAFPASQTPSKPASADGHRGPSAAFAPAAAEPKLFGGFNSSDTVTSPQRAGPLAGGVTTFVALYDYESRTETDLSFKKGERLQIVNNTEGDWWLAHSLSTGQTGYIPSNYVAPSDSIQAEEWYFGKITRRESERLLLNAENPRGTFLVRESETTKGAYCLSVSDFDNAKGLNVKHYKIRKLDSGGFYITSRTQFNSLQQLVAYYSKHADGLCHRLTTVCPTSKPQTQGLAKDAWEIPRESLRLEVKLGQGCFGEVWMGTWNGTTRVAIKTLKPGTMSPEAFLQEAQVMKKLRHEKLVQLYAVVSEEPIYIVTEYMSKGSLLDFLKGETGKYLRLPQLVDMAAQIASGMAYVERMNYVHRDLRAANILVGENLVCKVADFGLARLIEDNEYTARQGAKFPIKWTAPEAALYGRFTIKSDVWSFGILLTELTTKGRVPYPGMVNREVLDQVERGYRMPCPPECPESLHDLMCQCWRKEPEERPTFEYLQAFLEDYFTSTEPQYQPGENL
# [15] = molecular target: T13, LYN (Homo sapiens, UniProt P07948); experiment: as above; assay type: binding
# T13 construct: purchased Reaction Biology Co
# [16] = molecular target: T14, EPHB6 (Homo sapiens, UniProt O15197); experiment: as above; assay type: binding
# T14 construct: purchased Reaction Biology Co
# T1 sequence (P07333 20-972): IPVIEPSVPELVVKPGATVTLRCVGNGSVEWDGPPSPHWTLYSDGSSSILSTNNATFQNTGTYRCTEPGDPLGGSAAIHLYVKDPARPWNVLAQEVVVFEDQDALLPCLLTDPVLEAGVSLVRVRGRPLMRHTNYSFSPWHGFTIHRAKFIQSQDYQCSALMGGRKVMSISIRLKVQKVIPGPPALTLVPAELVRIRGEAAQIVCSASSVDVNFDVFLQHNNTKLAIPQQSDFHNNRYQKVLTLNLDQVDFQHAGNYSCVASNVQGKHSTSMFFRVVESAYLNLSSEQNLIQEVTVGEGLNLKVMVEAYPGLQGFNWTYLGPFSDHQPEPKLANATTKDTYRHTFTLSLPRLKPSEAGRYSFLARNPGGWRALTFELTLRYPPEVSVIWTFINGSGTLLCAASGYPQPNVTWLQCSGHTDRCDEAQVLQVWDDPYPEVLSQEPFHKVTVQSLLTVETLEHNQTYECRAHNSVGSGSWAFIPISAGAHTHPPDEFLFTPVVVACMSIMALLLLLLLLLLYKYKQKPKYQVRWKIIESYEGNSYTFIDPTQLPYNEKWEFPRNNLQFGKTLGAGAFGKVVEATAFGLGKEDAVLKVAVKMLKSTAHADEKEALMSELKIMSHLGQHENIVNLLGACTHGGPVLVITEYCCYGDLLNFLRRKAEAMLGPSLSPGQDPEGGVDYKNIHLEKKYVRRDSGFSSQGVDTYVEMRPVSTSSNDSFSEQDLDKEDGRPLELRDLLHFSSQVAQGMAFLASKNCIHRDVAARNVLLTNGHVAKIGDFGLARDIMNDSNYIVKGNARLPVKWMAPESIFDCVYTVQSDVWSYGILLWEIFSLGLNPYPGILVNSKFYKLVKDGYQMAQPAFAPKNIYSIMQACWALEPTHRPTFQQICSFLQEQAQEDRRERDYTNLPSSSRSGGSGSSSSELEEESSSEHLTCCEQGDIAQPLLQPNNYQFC
smiles,measurement,setting,value
"Cc1ccc(C(=O)Nc2ccc(CN3CCN(C)CC3)c(C(F)(F)F)c2)cc1C#Cc1cnc2c(Nc3cnn(C)c3)cccn12 [Example 1, 4-methyl-3-((8-((1-methyl-1H-pyrazol-4-yl)amino)imidazo[1,2-a]pyridin-3-yl)ethynyl)-N-(4-((4-methylpiperazin-1-yl)methyl)-3-(trifluoromethyl)phenyl)benzamide]",Kd,[1],34 nM
same,Kd,[2],7.3 nM
same,Kd,[3],140 nM
same,Kd,[4],220 nM
same,IC50,[5],< 1 nM
same,IC50,[6],26 nM
same,GI50,[7],26 nM
"CCN1CCN(Cc2ccc(NC(=O)c3ccc(C)c(C#Cc4cnc5c(Nc6cnn(C)c6)cccn45)c3)cc2C(F)(F)F)CC1 [Example 8, N-(4-((4-ethylpiperazin-1-yl)methyl)-3-(trifluoromethyl)phenyl)-4-methyl-3-((8-((1-methyl-1H-pyrazol-4-yl)amino)imidazo[1,2-a]pyridin-3-yl)ethynyl)benzamide]",Kd,[8],17 nM
same,Kd,[9],6.4 nM
same,Kd,[10],7.7 nM
same,Kd,[11],13 nM
same,Kd,[12],52 nM
same,Kd,[13],5 nM
same,Kd,[14],10 nM
same,Kd,[4],270 nM
same,Kd,[15],15 nM
same,IC50,[5],< 1 nM
same,IC50,[6],52 nM
same,GI50,[7],32 nM
"Cc1ccc(C(=O)Nc2cccc(C(F)(F)F)c2)cc1C#Cc1cnc2c(Nc3cnn(C4CCNCC4)c3)cccn12 [Example 11, 4-methyl-3-((8-((1-(piperidin-4-yl)-1H-pyrazol-4-yl)amino)imidazo[1,2-a]pyridin-3-yl)ethynyl)-N-(3-(trifluoromethyl)phenyl)benzamide]",IC50,[5],< 1 nM
same,IC50,[6],1250 nM
same,GI50,[7],6.34 nM
"Cc1cn(-c2cc(NC(=O)c3ccc(C)c(C#Cc4cnc5c(Nc6cnn(C)c6)cccn45)c3)cc(C(F)(F)F)c2)cn1 [Example 12, 4-methyl-N-(3-(4-methyl-1H-imidazol-1-yl)-5-(trifluoromethyl)phenyl)-3-((8-((1-methyl-1H-pyrazol-4-yl)amino)imidazo[1,2-a]pyridin-3-yl)ethynyl)benzamide]",IC50,[5],< 1 nM
same,IC50,[6],942 nM
same,GI50,[7],6.72 nM
Cc1ccc(NC(=O)C2(C(=O)Nc3ccc(F)cc3)CC2)cc1C#Cc1cnc2c(Nc3cnn(C(C)C)c3)cccn12 [Example 78],Kd,[1],440 nM
same,Kd,[2],37 nM
same,Kd,[16],15 nM
same,IC50,[5],1200 nM
same,IC50,[6],4600 nM
same,GI50,[7],3240 nM
